In US10584111B2, “4-(3-cyanophenyl)-6-pyridinylpyrimidine mGlu5 modulators” (Heptares Therapeutics Limited, priority 2013, dated 2020):

Test system: CD-1 mice
Assay: In vivo efficacy test - marble burying
Set-up: species or system mouse
Conditions: male CD-1 mice, 10 and 30 mg/kg po, dosed 30 min prior to test; doses tested 1, 3, 10 and 30 mg/kg; one-way ANOVA with Dunnett's post-hoc test

N#Cc1cc(Cl)cc(-c2cc(-c3ccc(F)cn3)ncn2)c1 [Example 17, 3-chloro-5-[6-(5-fluoropyridin-2-yl)pyrimidin-4-yl]benzonitrile]
number of marbles buried versus vehicle group: statistically significant decrease in the number of marbles buried
